# Reference: PubChem BioAssay AID1117324 (Cheminformatics & Chemogenomics Research Group (CCRG), …, 2015)
# Calls of active or inactive are those of the source. How the calls were made is not given here.
# System: VEGF-stimulated ADSC/ECFC co-culture, nuclear area imaging
# Assay: nuclear area loss in endothelial-stromal co-culture, dose response, cell-based, VEGF stimulation, IC50 (AID 1117324)
row,SMILES,IC50
1,CCCCCCCCCCCCCCCC[N+](C)(C)Cc1ccccc1,> 10 µM (inactive)
2,CCN(CC)CCCC(C)Nc1c2ccc(Cl)cc2nc2ccc(OC)cc12 (stereo not given),> 10 µM (inactive)
3,CCCSS/C(CCO)=C(\C)N(C=O)Cc1cnc(C)nc1N,> 10 µM (inactive)
4,O=C1c2c(O)ccc(O)c2C(=O)c2c(NCCNCCO)ccc(NCCNCCO)c21,0.0127 µM
5,CCC(C)(C)C(=O)O[C@H]1C[C@@H](C)C=C2C=C[C@H](C)[C@H](CC[C@@H]3C[C@@H](O)CC(=O)O3)[C@H]21,5.13 µM (inactive)
6,CC(=O)O[C@@]12CO[C@@H]1C[C@H](O)[C@@]1(C)C(=O)[C@H](O)C3=C(C)[C@@H](OC(=O)[C@H](O)[C@@H](NC(=O)OC(C)(C)C)c4ccccc4)C[C@@](O)([C@@H](OC(=O)c4ccccc4)[C@H]21)C3(C)C,> 10 µM (inactive)
7,Clc1ccc(CSC(Cn2ccnc2)c2ccc(Cl)cc2Cl)cc1 (stereo not given),8.76 µM (inactive)
8,CCCCCCCCCCCCCCCCCC[N+](C)(C)CCC[Si](OC)(OC)OC,> 10 µM (inactive)
9,CCCCC(CC)CN=C(N)NC(N)=NCCCCCCN=C(N)NC(N)=NCC(CC)CCCC (stereo not given),> 10 µM (inactive)
10,CCN1CCC[C@H]1CNC(=O)c1c(OC)ccc(Br)c1OC,> 10 µM (inactive)
11,CN(C)c1ccc(C(=C2C=CC(=[N+](C)C)C=C2)c2ccc(N(C)C)cc2)cc1,1.83 µM
12,CCCCCCOC(=O)c1cccnc1,> 10 µM (inactive)
13,CC1CCC(C(C)C)C(OC(=O)c2ccccc2O)C1 (stereo not given),> 10 µM (inactive)
14,CS(=O)(=O)CCNCc1ccc(-c2ccc3ncnc(Nc4ccc(OCc5cccc(F)c5)c(Cl)c4)c3c2)o1,> 10 µM (inactive)
15,COc1cc([C@@H]2c3cc4c(cc3[C@H](O)[C@H]3COC(=O)[C@H]23)OCO4)cc(OC)c1OC,> 10 µM (inactive)
16,COc1ccc(CCN2CCC(Nc3nc4ccccc4n3Cc3ccc(F)cc3)CC2)cc1,> 10 µM (inactive)
17,COC(=O)C1=C(C)NC(C)=C(C(=O)OC(C)(C)CN(C)CCC(c2ccccc2)c2ccccc2)C1c1cccc([N+](=O)[O-])c1 (stereo not given),> 10 µM (inactive)
18,Cc1cc(OI)c(C(C)C)cc1-c1cc(C(C)C)c(OI)cc1C,> 10 µM (inactive)
19,CCOc1ccc2nc3cc(N)ccc3c(N)c2c1,> 10 µM (inactive)
20,Cc1cc(C(C#N)c2ccc(Cl)cc2)c(Cl)cc1NC(=O)c1cc(I)cc(I)c1O (stereo not given),7.36 µM (inactive)
21,O=c1[nH]c(=O)n([C@H]2C[C@H](O)[C@@H](CO)O2)cc1I,> 10 µM (inactive)
22,COc1cccc2c1C(=O)c1c(O)c3c(c(O)c1C2=O)C[C@@](O)(C(=O)CO)C[C@@H]3O[C@H]1C[C@H](N)[C@H](O)[C@H](C)O1,0.114 µM
23,Cc1cccc(C)c1NC(=O)CC12CCCN1CCC2,> 10 µM (inactive)

row,SMILES,IC50
1,O=C(N/N=C/c1ccccc1O)c1ccncc1,> 10 µM (inactive)
2,CC[C@@H]([C@H](C)O)n1ncn(-c2ccc(N3CCN(c4ccc(OC[C@@H]5CO[C@@](Cn6cncn6)(c6ccc(F)cc6F)C5)cc4)CC3)cc2)c1=O,> 10 µM (inactive)
3,CCCCCCCCCCC[C@@H](C[C@@H]1OC(=O)[C@H]1CCCCCC)OC(=O)[C@H](CC(C)C)NC=O,> 10 µM (inactive)
4,CC(C)(C)C1CCC(CC2=C(O)c3ccccc3C(=O)C2=O)CC1 (stereo not given),> 10 µM (inactive)
5,CCOP(=S)(OCC)SCSc1ccc(Cl)cc1,> 10 µM (inactive)
6,COc1ccc(/C=N/NC(=O)c2ccncc2)cc1OC,> 10 µM (inactive)
7,Clc1ccc(CCC(Cn2ccnc2)Sc2c(Cl)cccc2Cl)cc1 (stereo not given),6.74 µM (inactive)
8,O=C(CCN1CCC(c2ccccc2)C1)c1ccc2c(c1)OCCO2 (stereo not given),> 10 µM (inactive)
9,O=C(O)c1ccc(-n2nc(-c3ccccc3O)nc2-c2ccccc2O)cc1,> 10 µM (inactive)
10,CC(=O)NC(=O)c1ccccc1O,> 10 µM (inactive)
11,OC[C@H]1O[C@@H](n2cnc3c(=S)nc[nH]c32)[C@H](O)[C@@H]1O,> 10 µM (inactive)
12,OCCN1CCN(CCCN2c3ccccc3Sc3ccc(C(F)(F)F)cc32)CC1,> 10 µM (inactive)
13,O=c1[nH]sc2cc(Cl)ccc12,9.43 µM (inactive)
14,O=C(CBr)Nc1ccc(Cl)cc1C(=O)c1ccccc1F,> 10 µM (inactive)
15,CCCCCCCCCCCCCCCC(=O)OCC=C(C)C=CC=C(C)C=CC1=C(C)CCCC1(C)C,> 10 µM (inactive)
16,O=C1C(=O)c2ccccc2C(O)=C1C1CCC(c2ccc(Cl)cc2)CC1 (stereo not given),> 10 µM (inactive)
17,CC(C)=CCC/C(C)=C/CC/C(C)=C/C(=O)OCC(=O)[C@@]1(O)CC[C@H]2[C@@H]3CCC4=CC(=O)C=C[C@]4(C)[C@H]3[C@@H](O)C[C@@]21C,> 10 µM (inactive)
18,COc1ccc2cc3[n+](cc2c1OC)CCc1cc2c(cc1-3)OCO2,> 10 µM (inactive)
19,CCC=CCC=CCC=CCCCCCCCC(=O)O,> 10 µM (inactive)
20,COC(=O)C1=C(C)NC(C)=C(C(=O)O[C@@H]2CCCN(Cc3ccccc3)C2)[C@@H]1c1cccc([N+](=O)[O-])c1,> 10 µM (inactive)
21,CCCCCCCCCCCCNCCNCCNCC(=O)O,> 10 µM (inactive)
22,COc1ccc2cc1Oc1ccc(cc1)C[C@H]1c3c(cc4c(c3Oc3cc5c(cc3OC)CCN(C)[C@@H]5C2)OCO4)CCN1C,> 10 µM (inactive)
23,O=[N+]([O-])c1cc(I)c(O)c(I)c1,> 10 µM (inactive)

row,SMILES,IC50
1,CN1CC[C@H](c2c(O)cc(O)c3c(=O)cc(-c4ccccc4Cl)oc23)[C@H](O)C1,0.328 µM
2,O=C1C2CC=CCC2C(=O)N1SC(Cl)(Cl)Cl (stereo not given),> 10 µM (inactive)
3,C[C@]12CC[C@@H]3c4ccc(O)cc4CC[C@H]3[C@@H]1CC[C@@H]2OC(=O)CCC1CCCC1,> 10 µM (inactive)
4,O=c1[nH]c(=O)n([C@H]2C[C@H](O)[C@@H](CO)O2)cc1F,> 10 µM (inactive)
5,O=C(O)C1(C(=O)O)CCC1.[NH2-].[NH2-].[Pt+2],> 10 µM (inactive)
6,O=C1OC(OC(=O)c2cccnc2Nc2cccc(C(F)(F)F)c2)c2ccccc21 (stereo not given),> 10 µM (inactive)
7,CNS(=O)(=O)CCc1ccc2[nH]cc(C3CCN(C)CC3)c2c1,> 10 µM (inactive)
8,Cc1[nH]cnc1C[C@H]1CCc2c(C)c3ccccc3n2C1=O,> 10 µM (inactive)
9,C/C(=C(/OCCOc1ccc(Cl)cc1)c1ccc(Cl)cc1Cl)n1ccnc1,9.42 µM (inactive)
10,CCCCCCCCCCCCCCCC[N+](C)(C)CC,7.58 µM (inactive)
11,Clc1ccc(C(Cn2ccnc2)OCc2ccc(Sc3ccccc3)cc2)c(Cl)c1 (stereo not given),> 10 µM (inactive)
12,COP(=S)(OC)Oc1ccc(Sc2ccc(OP(=S)(OC)OC)cc2)cc1,> 10 µM (inactive)
13,O=C(c1ccc(F)cc1)C1CCN(CCn2c(=O)[nH]c3ccccc3c2=O)CC1,> 10 µM (inactive)
14,O=C(Nc1ccc(Oc2ccc(Cl)cc2)c(Cl)c1)c1cc(I)cc(I)c1O,6.57 µM (inactive)
15,CN(C)CCOC1=Cc2ccccc2Sc2ccc(Cl)cc21,> 10 µM (inactive)
16,Oc1c(Cl)cc(Cl)cc1Sc1cc(Cl)cc(Cl)c1O,> 10 µM (inactive)
17,Cc1nc(Nc2ncc(C(=O)Nc3c(C)cccc3Cl)s2)cc(N2CCN(CCO)CC2)n1,> 10 µM (inactive)
18,CC[C@@]1(O)C(=O)OCc2c1cc1n(c2=O)Cc2cc3c(CN(C)C)c(O)ccc3nc2-1,0.025 µM
19,CCOC(=O)C=C(C)C=CC[C@@H](C)CCCC(C)C,> 10 µM (inactive)
20,O=C1NC2CCCCN2C12CCN(CCCN1c3ccccc3CCc3ccc(Cl)cc31)CC2 (stereo not given),> 10 µM (inactive)
21,COc1cccc2c1C(=O)c1c(O)c3c(c(O)c1C2=O)C[C@@](O)(C(=O)CO)CC3OC1CC(N2CCOC(OC)C2)C(O)C(C)O1 (stereo not given in full),0.0442 µM
22,O=S(c1cc(Cl)cc(Cl)c1O)c1cc(Cl)cc(Cl)c1O,> 10 µM (inactive)
23,CC(C)OC(=O)OCOP(=O)(CO[C@H](C)Cn1cnc2c(N)ncnc21)OCOC(=O)OC(C)C,> 10 µM (inactive)

row,SMILES,IC50
1,CCCCCCCC[N+](C)(C)CCCCCCCC,7.43 µM (inactive)
2,CCCCC(=O)O[C@H]1CC[C@H]2[C@@H]3CCc4cc(O)ccc4[C@@H]3CC[C@]12C,8.3 µM (inactive)
3,Cc1cc(C2CCCCC2)n(O)c(=O)c1,> 10 µM (inactive)
4,CCC(C)n1ncn(-c2ccc(N3CCN(c4ccc(OC[C@H]5CO[C@](Cn6cncn6)(c6ccc(Cl)cc6Cl)O5)cc4)CC3)cc2)c1=O (stereo not given in full),> 10 µM (inactive)
5,Cc1cc(-c2ccc(N=Nc3c(S(=O)(=O)O)cc4cc(S(=O)(=O)O)cc(N)c4c3O)c(C)c2)ccc1N=Nc1c(S(=O)(=O)O)cc2cc(S(=O)(=O)O)cc(N)c2c1O,> 10 µM (inactive)
6,CCCCC[C@@H](O)CC[C@H]1[C@@H]2Cc3cccc(OCC(=O)O)c3C[C@@H]2C[C@@H]1O,> 10 µM (inactive)
7,CCCCC1C(=O)N(c2ccccc2)N(c2ccc(O)cc2)C1=O (stereo not given),8.83 µM (inactive)
8,O=C1c2c(O)cccc2Cc2cccc(O)c21,> 10 µM (inactive)
9,O=C(CCCN1CCC(O)(c2cccc(C(F)(F)F)c2)CC1)c1ccc(F)cc1,> 10 µM (inactive)
10,COC(=O)N[C@H](C(=O)N[C@@H](Cc1ccccc1)[C@@H](O)CN(Cc1ccc(-c2ccccn2)cc1)NC(=O)[C@@H](NC(=O)OC)C(C)(C)C)C(C)(C)C,> 10 µM (inactive)
11,CNC(=O)Oc1cccc2ccccc12,> 10 µM (inactive)
12,COc1ccc([C@@H]2Sc3ccccc3NC(=O)[C@@H]2O)cc1,> 10 µM (inactive)
13,Oc1c(I)cc(I)c2cccnc12,> 10 µM (inactive)
14,N[C@@H](Cc1ccc(N(CCCl)CCCl)cc1)C(=O)O,> 10 µM (inactive)
15,CCc1cccc(N(C)C(N)=Nc2cccc3ccccc23)c1,> 10 µM (inactive)
16,Oc1c(Br)cc(Br)c2cccnc12,> 10 µM (inactive)
17,CCN(CC)CCOc1ccc(/C(=C(\Cl)c2ccccc2)c2ccccc2)cc1,> 10 µM (inactive)
18,CC[C@H](C)C(=O)O[C@H]1C[C@@H](C)C=C2C=C[C@H](C)[C@H](CC[C@@H]3C[C@@H](O)CC(=O)O3)[C@H]21,> 10 µM (inactive)
19,CCOC(=O)[C@H](CCc1ccccc1)N[C@@H](C)C(=O)N1C(=O)N(C)C[C@H]1C(=O)O,> 10 µM (inactive)
20,CCCCCCCCCCCCCC[N+](C)(C)C,6.68 µM (inactive)
21,Nc1cc(C(F)(F)F)ccc1S,> 10 µM (inactive)
